How the values were obtained:
[1] = target: T1, Amine oxidase [flavin-containing] A (Homo sapiens, UniProt P21397); assay: Inhibition of human recombinant MAOA using kynuramine as substrate incubated for 10 mins by UPLC-ESI-MS/MS analysis
T1 sequence (P21397 whole entry): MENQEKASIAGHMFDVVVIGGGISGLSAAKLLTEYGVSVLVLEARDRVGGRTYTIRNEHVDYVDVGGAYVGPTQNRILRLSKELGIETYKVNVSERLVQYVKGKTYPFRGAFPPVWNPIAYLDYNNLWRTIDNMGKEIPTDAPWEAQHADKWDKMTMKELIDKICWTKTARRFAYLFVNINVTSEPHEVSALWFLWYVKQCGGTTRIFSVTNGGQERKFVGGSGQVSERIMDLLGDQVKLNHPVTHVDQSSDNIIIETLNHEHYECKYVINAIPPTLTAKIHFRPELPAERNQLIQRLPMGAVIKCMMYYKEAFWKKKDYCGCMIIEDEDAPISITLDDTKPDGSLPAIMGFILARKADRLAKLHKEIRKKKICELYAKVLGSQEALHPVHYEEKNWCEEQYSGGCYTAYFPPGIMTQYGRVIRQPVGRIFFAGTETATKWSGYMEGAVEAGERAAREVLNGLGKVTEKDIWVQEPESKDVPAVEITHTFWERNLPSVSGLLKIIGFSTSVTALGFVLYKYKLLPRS

[2] = target: T2, Amine oxidase [flavin-containing] B (Homo sapiens, UniProt P27338); assay: Inhibition of human recombinant MAOB using kynuramine as substrate incubated for 10 mins by UPLC-ESI-MS/MS analysis
T2 sequence (P27338 whole entry): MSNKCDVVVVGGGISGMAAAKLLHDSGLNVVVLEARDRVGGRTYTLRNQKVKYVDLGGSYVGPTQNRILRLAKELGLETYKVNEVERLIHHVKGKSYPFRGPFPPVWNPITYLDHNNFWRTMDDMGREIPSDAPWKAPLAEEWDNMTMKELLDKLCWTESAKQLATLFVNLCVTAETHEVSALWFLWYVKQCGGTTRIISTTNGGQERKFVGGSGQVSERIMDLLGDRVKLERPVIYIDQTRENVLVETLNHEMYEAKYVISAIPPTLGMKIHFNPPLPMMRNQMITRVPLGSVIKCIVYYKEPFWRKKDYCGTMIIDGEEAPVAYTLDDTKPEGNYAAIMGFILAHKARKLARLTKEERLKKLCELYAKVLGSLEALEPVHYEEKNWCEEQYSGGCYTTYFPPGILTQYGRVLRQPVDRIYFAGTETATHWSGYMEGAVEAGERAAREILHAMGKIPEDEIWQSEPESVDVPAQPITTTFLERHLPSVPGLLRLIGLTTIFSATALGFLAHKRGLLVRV

Homo sapiens = species: Homo sapiens; assay: Selectivity index, ratio of IC50 for human recombinant MAOB to IC50 for human recombinant MAOA
[3] = target: T1, Amine oxidase [flavin-containing] A; assay: Tight binding competitive inhibition of human recombinant MAOA using 50 uM to 1000 uM kynuramine as substrate incubated for 10 mins by UPLC-ESI-MS/MS analysis based kinetic analysis
[4] = target: T1, Amine oxidase [flavin-containing] A; assay: Inhibition of human recombinant MAOA using kynuramine as substrate incubated for 10 mins by UPLC-ESI-MS/MS analysis based Michaelis-Menten plot kinetic analysis
[5] = target: T1, Amine oxidase [flavin-containing] A; assay: Inhibition of human recombinant MAOA using kynuramine as substrate incubated for 10 mins by UPLC-ESI-MS/MS analysis based Eadie-Hofstee plot analysis
[6] = target: T1, Amine oxidase [flavin-containing] A; assay: Tight-binding competitive inhibition of human recombinant MAOA using kynuramine as substrate incubated for 10 mins by UPLC-ESI-MS/MS analysis based Lineweaver-Burk plot kinetic analysis

**Q.** How did the IC50 [1] turn out when CC[C@@H]1Cc2c(C)cc(-c3cncnc3)c(O)c2C(=O)O1 was run?
**A.** 60 nM

**Q.** What about the IC50 [2] of the same molecule?
**A.** > 50000 nM

**Q.** What about the Ratio IC50 (Homo sapiens) of the same molecule?
**A.** > 830

**Q.** What about the “inhibition (INH)” value [3] of the same molecule?
**A.** Active

**Q.** And the “inhibition (INH)” value [4]?
**A.** Active

**Q.** What about the “inhibition (INH)” value [5] of the same molecule?
**A.** Active

**Q.** And the “inhibition (INH)” value [6]?
**A.** Active

Source: ChEMBL document CHEMBL4392854, “Discovery, synthesis, biological evaluation and molecular docking study of (R)-5-methylmellein and its analogs as selective monoamine oxidase A inhibitors” (Bioorg Med Chem, 2019)
